The numbers were not newly measured in patent publication US7332526B2 (Allergan, Inc., priority 2003, dated 2008), which cites them from elsewhere.

No end group written: not given here.

For data set [1] the following is noted: in vivo.
Data set [2] has as its system wounded corneal epithelial cells. The settings on record: in vitro, rabbit cells.

Turning to `CCNC(=O)CCC/C=C\C[C@@H]1[C@@H](/C=C/[C@@H](O)CCc2ccccc2)[C@H](O)C[C@@H]1O` [bimatoprost], the “hyperemia and other irritating side effects compared to certain prostaglandins” value in data set [1] was “significantly less hyperemia and other irritating side effects”.

Consider “TFF3: human trefoil factor family peptide with one trefoil domain, produced by goblet cells of small and large intestine (EEYVGLSANQCAVPAKDRVDCGYPHVTPKECNNRGCCFDSRIPGVPWCFKPLQEAECTF; ends and bridges not checked; cysteine pairing not given here; UniProt Q07654 22-80, looked up)”, for which the “migration of wounded corneal epithelial cells” value in data set [2] was “promote the migration”.

B1: TFF2: human trefoil factor family peptide containing two trefoil domains, produced by mucus-producing cells of stomach (protein, UniProt Q03403 24-129, looked up)
Trefoil factor 2: EKPSPCQCSRLSPHNRTNCGFPGITSDQCFDNGCCFDSSVTGVPWCFHPLPKQESDQCVMEVSDRRNCGYPGISPEECASRKCCFSNFIFEVPWCFFPKSVEDCHY
Consider B1, for which the “migration of wounded corneal epithelial cells” value in data set [2] was “promote the migration”.
